Data as given in US9114117B2, “Compounds effective against cancer” (Ingo Schmidt-Wolf, priority 2009, dated 2015).

Assays:
[1] = cited from earlier work
[2] = Relative viability of PBMCs by FACS analysis; format: cell-based; conditions: culture = 100%
Text: (§1) The peripheral blood lymphocytes (PBLs) out of the PBMCs were selected for the FACS analysis (FIG. 5). A toxicity of the cells induced a shift from viable cells to apoptotic cells (FIG. 6, 7). If the drug or its concentration is very toxic, the cells appear addition-ally in a higher extent necrotic.
(§2) DMSO, the solvent of EA and cic, was given to the PBMCs in a ratio of 1:100, as control. The values are related to the culture-control and expressed as mean±standard error of the mean (SEM) taken from 5 separate measurements. In FIG. 5 (A) samples were measured after 24, 48 and 72 h. After 0 h, the time of execution, the relative viability was defined as 100° A) for all samples. In FIG. 5 (B) the relative viability values for the samples measured after 24, 48 and 72 h.

PBMCs = assay: Relative apoptosis of PBMCs by FACS analysis; format: cell-based; conditions: culture = 0%
Text: as §1
as §2, with “FIG. 6” for “FIG. 5”, “relative apoptosis” for “relative viability”, “as 0%” for “as 100° A)”

cell line LAM-53 [3] = assay: Relative viability of cell line LAM-53 by FACS analysis; format: cell-based; conditions: culture = 100%; for viability at 30 µM: 30 μM EA
Text: as §1
as §2, with “the cell line LAM-53” for “the PBMCs”, “FIG. 7” for “FIG. 5”, “as 100%” for “as 100° A)”

cell line LAM-53 [4] = assay: Relative apoptosis of cell line LAM-53 by FACS analysis; format: cell-based; conditions: culture = 0%
Text: as §1
as §2, with “the cell line LAM-53” for “the PBMCs”, “FIG. 8” for “FIG. 5”, “relative apoptosis” for “relative viability”, “as 0%” for “as 100° A)”

cell line DHL-4 [5] = assay: Relative viability of cell line DHL-4 by FACS analysis; format: cell-based; conditions: culture = 100%; for viability at 30 µM: 30 μM EA; for viability at 10 µM: 10 μM cic
Text: as §1
as §2, with “the cell line DHL-4” for “the PBMCs”, “FIG. 9” for “FIG. 5”, “as 100%” for “as 100° A)”

cell line DHL-4 [6] = assay: Relative apoptosis of cell line DHL-4 by FACS analysis; format: cell-based; conditions: culture = 0%
Text: as §1
as §2, with “the cell line DHL-4” for “the PBMCs”, “FIG. 10” for “FIG. 5”, “relative apoptosis” for “relative viability”, “as 0%” for “as 100° A)”

cell line OPM-2 [7] = assay: Relative viability of myeloma cell line OPM-2 by FACS analysis; format: cell-based; conditions: Homo sapiens, culture = 100%; for viability at 30 µM: 30 μM EA; for viability at 10 µM: 10 μM cic
Text: as §1
as §2, with “the cell line OPM-2” for “the PBMCs”, “FIG. 11” for “FIG. 5”, “as 100%” for “as 100° A)”

cell line OPM-2 [8] = assay: Relative apoptosis of myeloma cell line OPM-2 by FACS analysis; format: cell-based; conditions: culture = 0%
Text: as §1
as §2, with “the cell line OPM-2” for “the PBMCs”, “FIG. 12” for “FIG. 5”, “relative apoptosis” for “relative viability”, “as 0%” for “as 100° A)”

cell line Raji [9] = assay: Relative viability of cell line Raji by FACS analysis; format: cell-based; conditions: Homo sapiens, culture = 100%; for viability at 30 µM: 30 μM EA; for viability at 10 µM: 10 μM cic
Text: as §1
as §2, with “the cell line Raji” for “the PBMCs”, “FIG. 13” for “FIG. 5”, “as 100%” for “as 100° A)”

cell line Raji [10] = assay: Relative apoptosis of cell line Raji by FACS analysis; format: cell-based; conditions: culture = 0%
Text: as §1
as §2, with “the cell line Raji” for “the PBMCs”, “FIG. 14” for “FIG. 5”, “relative apoptosis” for “relative viability”, “as 0%” for “as 100° A)”

[11] = per day; cited from earlier work

Q: For `Cc1cc(C2CCCCC2)n(O)c(=O)c1` [Ciclopirox, 6-cyclohexyl-1-hydroxy-4-methyl-1,2-dihydropyridin-2-one], which solubility in methanol ([1]; methanol) is on record?
A: soluble

Q: Which viability at 24 h, 30 μM ([2]; 30 μM EA, 24 h) does the source give for `C=C(CC)C(=O)c1ccc(OCC(=O)O)c(Cl)c1Cl` [EA, 2-[2,3-dichloro-4-(2-methylidenebutanoyl)phenoxy]acetic acid] here?
A: 98.9%

Q: What about the viability at 48 h, 30 μM ([2]; 30 μM EA, 48 h) of the same compound?
A: 94.9%

Q: And the viability at 72 h, 30 μM ([2]; 30 μM EA, 72 h)?
A: 89.5%

Q: And the relative apoptosis (PBMCs; 30 μM EA, 24 h)?
A: 1.3%

Q: What about the relative apoptosis (PBMCs; 30 μM EA, 48 h) of the same compound?
A: 3.9%

Q: What about the relative apoptosis (PBMCs; 30 μM EA, 72 h) of the same compound?
A: 7.6%

Q: And the viability at 30 µM (cell line LAM-53 [3]; 24 h)?
A: 96.7%

Q: What about the viability at 30 µM (cell line LAM-53 [3]; 48 h) of the same compound?
A: 96.2%

Q: What about the viability at 30 µM (cell line LAM-53 [3]; 72 h) of the same compound?
A: 91%

Q: What about the relative apoptosis (cell line LAM-53 [4]; 30 μM EA, 24 h) of the same compound?
A: 0.7%

Q: What about the relative apoptosis (cell line LAM-53 [4]; 30 μM EA, 48 h) of the same compound?
A: 1.5%

Q: And the relative apoptosis (cell line LAM-53 [4]; 30 μM EA, 72 h)?
A: 1.8%

Q: What about the viability at 30 µM (cell line DHL-4 [5]; 24 h) of the same compound?
A: 91.7%

Q: And the viability at 30 µM (cell line DHL-4 [5]; 48 h)?
A: 96%

Q: What about the viability at 30 µM (cell line DHL-4 [5]; 72 h) of the same compound?
A: 97.6%

Q: What about the relative apoptosis (cell line DHL-4 [6]; 30 μM EA, 24 h) of the same compound?
A: 6.7%

Q: And the relative apoptosis (cell line DHL-4 [6]; 30 μM EA, 48 h)?
A: 2.0%

Q: What about the relative apoptosis (cell line DHL-4 [6]; 30 μM EA, 72 h) of the same compound?
A: 1.2%

Q: And the viability at 30 µM (cell line OPM-2 [7]; 24 h)?
A: 96.4%

Q: What about the viability at 30 µM (cell line OPM-2 [7]; 48 h) of the same compound?
A: 84.2%

Q: And the viability at 30 µM (cell line OPM-2 [7]; 72 h)?
A: 58%

Q: What about the relative apoptosis (cell line OPM-2 [8]; 30 μM EA, 24 h) of the same compound?
A: 2.3%

Q: And the relative apoptosis (cell line OPM-2 [8]; 30 μM EA, 48 h)?
A: 7.5%

Q: And the relative apoptosis (cell line OPM-2 [8]; 30 μM EA, 72 h)?
A: 13.4%

Q: And the viability at 30 µM (cell line Raji [9]; 24 h)?
A: 95.7%

Q: What about the viability at 30 µM (cell line Raji [9]; 48 h) of the same compound?
A: 90.7%

Q: And the viability at 30 µM (cell line Raji [9]; 72 h)?
A: 78.9%

Q: What about the relative apoptosis (cell line Raji [10]; 30 μM EA, 24 h) of the same compound?
A: 2.4%

Q: And the relative apoptosis (cell line Raji [10]; 30 μM EA, 48 h)?
A: 4.8%

Q: And the relative apoptosis (cell line Raji [10]; 30 μM EA, 72 h)?
A: 9.8%

Q: And the “solubility in most organic solvents” value ([1]; e.g. alcohols, chloroform, and benzene)?
A: soluble

Q: And the solubility in water ([1]; water)?
A: slightly soluble

Q: Which results are given for `Cc1cc(C2CCCCC2)n(O)c(=O)c1` [cic, Ciclopirox olamine]?
A: viability at 24 h, 10 μM ([2]; 10 μM cic, 24 h): 99.3%; viability at 48 h, 10 μM ([2]; 10 μM cic, 48 h): 98.3%; viability at 72 h, 10 μM ([2]; 10 μM cic, 72 h): 94.4%; relative apoptosis (PBMCs; 10 μM cic, 24 h): 0.4%; relative apoptosis (PBMCs; 10 μM cic, 48 h): 1.4%; relative apoptosis (PBMCs; 10 μM cic, 72 h): 3.3%; relative viability (cell line LAM-53 [3]; 10 μM cic, 48 h): 52.9%; viability at 10 µM (cell line LAM-53 [3]; 24 h, 10 μM cic): 76.2%; viability at 10 µM (cell line LAM-53 [3]; 72 h, 10 μM cic): 32.4%; relative apoptosis (cell line LAM-53 [4]; 10 μM cic, 24 h): 12.2%; relative apoptosis (cell line LAM-53 [4]; 10 μM cic, 48 h): 34.4%; relative apoptosis (cell line LAM-53 [4]; 10 μM cic, 72 h): 51.2%; viability at 10 µM (cell line DHL-4 [5]; 24 h): 93%; viability at 10 µM (cell line DHL-4 [5]; 48 h): 90.3%; viability at 10 µM (cell line DHL-4 [5]; 72 h): 55.9%; relative apoptosis (cell line DHL-4 [6]; 10 μM cic, 24 h): 5.8%; relative apoptosis (cell line DHL-4 [6]; 10 μM cic, 48 h): 5.0%; relative apoptosis (cell line DHL-4 [6]; 10 μM cic, 72 h): 30.8%; viability at 10 µM (cell line OPM-2 [7]; 24 h): 93.6%; viability at 10 µM (cell line OPM-2 [7]; 48 h): 72.5%; viability at 10 µM (cell line OPM-2 [7]; 72 h): 29.4%; relative apoptosis (cell line OPM-2 [8]; 10 μM cic, 24 h): 4.0%; relative apoptosis (cell line OPM-2 [8]; 10 μM cic, 48 h): 15.3%; relative apoptosis (cell line OPM-2 [8]; 10 μM cic, 72 h): 34.8%; viability at 10 µM (cell line Raji [9]; 24 h): 83.8%; viability at 10 µM (cell line Raji [9]; 48 h): 45.6%; viability at 10 µM (cell line Raji [9]; 72 h): 21.7%; relative apoptosis (cell line Raji [10]; 10 μM cic, 24 h): 14.1%; relative apoptosis (cell line Raji [10]; 10 μM cic, 48 h): 31.0%; relative apoptosis (cell line Raji [10]; 10 μM cic, 72 h): 30.0%; maximum concentration in human systemic tolerability studies [11]: 275 µM
